Test results as given in patent US20090306126A1, “Indole Derivatives” (ASTRAZENECA AB, priority 2006, published 2009).
pIC50: −log10 of the molar value.

What was measured:
[1] = tested on: phosphorylation of Serine 473 in Akt; experiment: In vitro phospho-Ser473 Akt assay in MDA-MB-468 cells, Test (c); format: cell-based; conditions: Homo sapiens, 2 hours, read-out: IC50, inhibition of phosphorylation of Serine 473 in Akt
Description: (c) In Vitro Phospho-Ser473 Akt Assay
This assay determines the ability of test compounds to inhibit phosphorylation of Serine 473 in Akt as assessed using Acumen Explorer technology (TTP LabTech Limited, Royston, Herts, SG8 6EE, UK), a plate reader that can be used to rapidly quantitate features of images generated by laser-scanning.
A MDA-MB-468 human breast adenocarcinoma cell line (LGC Promochem, Teddington, Middlesex, UK, Catalogue No. HTB-132) was routinely maintained at 37° C. with 5% CO2 up to a confluency of 70-90% in DMEM containing 10% FCS and 1% L-glutamine.
For the assay, the cells were detached from the culture flask using ‘Accutase’ (Innovative Cell Technologies Inc., San Diego, Calif., USA; Catalogue No. AT104) using standard tissue culture methods and resuspended in media to give 5.5×10^4 cells per ml. Aliquots (90 μl) were seeded into each of the inner 60 wells of a black ‘Costar’ 96-well plate (Corning Inc., NY, USA; Catalogue No. 3904) to give a density of ˜5000 cells per well. Aliquots (90 μl) of culture media were placed in the outer wells to prevent edge effects. [An alternative cell handling procedure involved the maintenance of the cells in a ‘SelecT’ robotic device (The Automation Partnership, Royston, Herts SG8 5WY, UK). Cells were resuspended in media to give 5×10^4 cells per ml. Aliquots (100 μl) were seeded into the wells of a black ‘Costar’ 96-well plate.] The cells were incubated overnight at 37° C. with 5% CO2 to allow them to adhere.
On day 2, the cells were treated with test compounds. Test compounds were prepared as 10 mM stock solutions in DMSO and serially diluted as required with DMSO and with growth media to give a range of concentrations that were 10-fold the required final test concentrations. Aliquots (10 μl) of each compound dilution were placed in duplicate wells to give the final required concentrations. As a minimum response control, each plate contained wells having a final concentration of 30 μM LY294002 (Calbiochem, Beeston, UK, Catalogue No. 440202). As a maximum response control, wells contained 0.5% DMSO instead of test compound. [An alternative cell treatment procedure involved the transfer of test compounds to the wells using an ‘Echo 550’ liquid dispenser (Labcyte Inc., Sunnyvale, Calif. 94089, USA). Test compounds were prepared as 10 mM stock solutions in DMSO and aliquots (40 μl) of each compound were dispensed into one well of a quadrant of wells within a 384-well plate (Labcyte Inc., Catalogue No. P-05525-CV1). Four concentrations of each compound were prepared in each quadrant of wells in the 384-well plate using a ‘Hydra II’ pipettor (Matrix Technologies Corporation, Handforth SK9 3LP, UK). […]

p110α Type Ia human PI3K = target: T1, p110α Type Ia human PI3K (Homo sapiens, UniProt P42336); experiment: In vitro PI3K enzyme assay (AlphaScreen), Test (a); format: biochemical; conditions: recombinant enzyme, ATP 4 μM, read-out: IC50 versus p110α Type Ia human PI3K
T1 construct: full length DNA of each of the p110α, p110β and p110δ Type Ia human PI3K p110 isoforms; 6-His; made in house
T1 sequence (P42336 whole entry, canonical isoform): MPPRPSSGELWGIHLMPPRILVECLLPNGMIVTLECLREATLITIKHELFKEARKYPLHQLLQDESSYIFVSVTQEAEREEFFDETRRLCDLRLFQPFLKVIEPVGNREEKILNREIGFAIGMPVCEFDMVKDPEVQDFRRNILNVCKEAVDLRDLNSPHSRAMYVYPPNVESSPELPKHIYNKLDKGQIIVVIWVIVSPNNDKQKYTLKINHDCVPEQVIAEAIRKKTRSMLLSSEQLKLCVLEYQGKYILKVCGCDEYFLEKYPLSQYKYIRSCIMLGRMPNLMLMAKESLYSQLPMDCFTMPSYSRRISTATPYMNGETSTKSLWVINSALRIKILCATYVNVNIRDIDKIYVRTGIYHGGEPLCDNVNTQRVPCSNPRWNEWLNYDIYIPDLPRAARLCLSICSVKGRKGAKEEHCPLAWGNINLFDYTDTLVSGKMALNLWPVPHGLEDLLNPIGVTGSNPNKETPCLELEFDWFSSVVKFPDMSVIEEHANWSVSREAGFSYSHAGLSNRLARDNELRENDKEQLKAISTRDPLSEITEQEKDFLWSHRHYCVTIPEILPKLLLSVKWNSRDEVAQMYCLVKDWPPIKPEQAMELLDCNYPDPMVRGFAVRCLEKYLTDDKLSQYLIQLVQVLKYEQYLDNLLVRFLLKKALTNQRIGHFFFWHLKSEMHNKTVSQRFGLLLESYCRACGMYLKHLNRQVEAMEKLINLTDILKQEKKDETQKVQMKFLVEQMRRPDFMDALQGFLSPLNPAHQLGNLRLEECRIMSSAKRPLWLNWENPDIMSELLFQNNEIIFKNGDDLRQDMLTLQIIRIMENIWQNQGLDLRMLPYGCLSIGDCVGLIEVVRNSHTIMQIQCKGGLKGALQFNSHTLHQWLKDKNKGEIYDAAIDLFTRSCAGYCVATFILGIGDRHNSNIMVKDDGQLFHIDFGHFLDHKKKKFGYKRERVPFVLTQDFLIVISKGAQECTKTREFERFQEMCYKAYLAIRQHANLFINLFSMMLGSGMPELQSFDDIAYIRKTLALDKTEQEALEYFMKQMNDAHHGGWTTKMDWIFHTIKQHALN
T1 sequence (P27986 whole entry partner, canonical isoform): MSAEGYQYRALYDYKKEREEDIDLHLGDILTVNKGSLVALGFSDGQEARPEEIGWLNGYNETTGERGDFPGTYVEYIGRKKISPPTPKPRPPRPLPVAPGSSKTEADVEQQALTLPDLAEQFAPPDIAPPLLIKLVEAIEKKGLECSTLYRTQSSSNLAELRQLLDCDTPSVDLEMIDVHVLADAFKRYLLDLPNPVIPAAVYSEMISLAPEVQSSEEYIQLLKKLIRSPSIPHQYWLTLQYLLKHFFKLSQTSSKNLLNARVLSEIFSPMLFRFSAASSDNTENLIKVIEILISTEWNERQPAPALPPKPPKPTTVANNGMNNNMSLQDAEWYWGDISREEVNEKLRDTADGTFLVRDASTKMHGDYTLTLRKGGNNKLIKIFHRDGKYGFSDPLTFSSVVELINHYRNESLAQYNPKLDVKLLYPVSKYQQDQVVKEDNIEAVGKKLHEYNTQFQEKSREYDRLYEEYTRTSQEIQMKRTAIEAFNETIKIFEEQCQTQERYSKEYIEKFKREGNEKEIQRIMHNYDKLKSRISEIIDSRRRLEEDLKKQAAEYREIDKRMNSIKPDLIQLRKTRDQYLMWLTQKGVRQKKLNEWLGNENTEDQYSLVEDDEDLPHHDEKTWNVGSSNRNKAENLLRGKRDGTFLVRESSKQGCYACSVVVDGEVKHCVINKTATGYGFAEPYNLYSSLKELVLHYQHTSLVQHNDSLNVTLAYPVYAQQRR
Source text: (a) In Vitro PI3K Enzyme Assay
The assay used AlphaScreen technology (Gray et al., Analytical Biochemistry, 2003, 313: 234-245) to determine the ability of test compounds to inhibit phosphorylation by recombinant Type I PI3K enzymes of the lipid PI(4,5)P2.
DNA fragments encoding human PI3K catalytic and regulatory subunits were isolated from cDNA libraries using standard molecular biology and PCR cloning techniques. The selected DNA fragments were used to generate baculovirus expression vectors. In particular, full length DNA of each of the p110α, p110β and p110δ Type Ia human PI3K p110 isoforms (EMBL Accession Nos. HSU79143, S67334, Y10055 for p110α, p110β and p110δ respectively) were sub-cloned into a pDEST10 vector (Invitrogen Limited, Fountain Drive, Paisley, UK). The vector is a Gateway-adapted version of Fastbac1 containing a 6-His epitope tag. A truncated form of Type Ib human PI3K p110γ isoform corresponding to amino acid residues 144-1102 (EMBL Accession No. X8336A) and the full length human p85α regulatory subunit (EMBL Accession No. HSP13KIN) were also sub-cloned into pFastBac1 vector containing a 6-His epitope tag. The Type Ia p110 constructs were co-expressed with the p85α regulatory subunit. Following expression in the baculovirus system using standard baculovirus expression techniques, expressed proteins were purified using the His epitope tag using standard purification techniques.
DNA corresponding to amino acids 263 to 380 of human general receptor for phosphoinositides (Grp1) PH domain was isolated from a cDNA library using standard molecular biology and PCR cloning techniques. The resultant DNA fragment was sub-cloned into a pGEX 4T1 E. coli expression vector containing a GST epitope tag (Amersham Pharmacia Biotech, Rainham, Essex, UK) as described by Gray et al., Analytical Biochemistry, 2003, 313: 234-245). The GST-tagged Grp1 PH domain was expressed and purified using standard techniques.
Test compounds were prepared as 10 mM stock solutions in DMSO and diluted into water as required to give a range of final assay concentrations. Aliquots (2 μl) of each compound dilution were placed into a well of a Greiner 384-well low volume (LV) white polystyrene plate (Greiner Bio-one, Brunel Way, Stonehouse, Gloucestershire, UK Catalogue No. 784075). […]
Biotinylated-DiC8-PI(3,4,5)P3 (50 nM; Cell Signals Inc., Catalogue No. 107), recombinant purified GST-Grp1 PH protein (2.5 nM) and AlphaScreen Anti-GST donor and acceptor beads (100 ng; Packard Bioscience Limited, Station Road, Pangbourne, Berkshire, UK, Catalogue No. 6760603M) were added and the assay plates were left for about 5 to 20 hours at room temperature in the dark. The resultant signals arising from laser light excitation at 680 nm were read using a Packard AlphaQuest instrument. […]

[2] = target: mTOR PI kinase-related kinase (Homo sapiens, UniProt P42345); experiment: In vitro mTOR PI kinase-related kinase assay (AlphaScreen), Test (b); format: biochemical; conditions: recombinant mTOR (1362-2549), ATP 20 μM, read-out: IC50 versus mTOR PI kinase-related kinase
Sequence of mTOR PI kinase-related kinase (P42345 1362-2549): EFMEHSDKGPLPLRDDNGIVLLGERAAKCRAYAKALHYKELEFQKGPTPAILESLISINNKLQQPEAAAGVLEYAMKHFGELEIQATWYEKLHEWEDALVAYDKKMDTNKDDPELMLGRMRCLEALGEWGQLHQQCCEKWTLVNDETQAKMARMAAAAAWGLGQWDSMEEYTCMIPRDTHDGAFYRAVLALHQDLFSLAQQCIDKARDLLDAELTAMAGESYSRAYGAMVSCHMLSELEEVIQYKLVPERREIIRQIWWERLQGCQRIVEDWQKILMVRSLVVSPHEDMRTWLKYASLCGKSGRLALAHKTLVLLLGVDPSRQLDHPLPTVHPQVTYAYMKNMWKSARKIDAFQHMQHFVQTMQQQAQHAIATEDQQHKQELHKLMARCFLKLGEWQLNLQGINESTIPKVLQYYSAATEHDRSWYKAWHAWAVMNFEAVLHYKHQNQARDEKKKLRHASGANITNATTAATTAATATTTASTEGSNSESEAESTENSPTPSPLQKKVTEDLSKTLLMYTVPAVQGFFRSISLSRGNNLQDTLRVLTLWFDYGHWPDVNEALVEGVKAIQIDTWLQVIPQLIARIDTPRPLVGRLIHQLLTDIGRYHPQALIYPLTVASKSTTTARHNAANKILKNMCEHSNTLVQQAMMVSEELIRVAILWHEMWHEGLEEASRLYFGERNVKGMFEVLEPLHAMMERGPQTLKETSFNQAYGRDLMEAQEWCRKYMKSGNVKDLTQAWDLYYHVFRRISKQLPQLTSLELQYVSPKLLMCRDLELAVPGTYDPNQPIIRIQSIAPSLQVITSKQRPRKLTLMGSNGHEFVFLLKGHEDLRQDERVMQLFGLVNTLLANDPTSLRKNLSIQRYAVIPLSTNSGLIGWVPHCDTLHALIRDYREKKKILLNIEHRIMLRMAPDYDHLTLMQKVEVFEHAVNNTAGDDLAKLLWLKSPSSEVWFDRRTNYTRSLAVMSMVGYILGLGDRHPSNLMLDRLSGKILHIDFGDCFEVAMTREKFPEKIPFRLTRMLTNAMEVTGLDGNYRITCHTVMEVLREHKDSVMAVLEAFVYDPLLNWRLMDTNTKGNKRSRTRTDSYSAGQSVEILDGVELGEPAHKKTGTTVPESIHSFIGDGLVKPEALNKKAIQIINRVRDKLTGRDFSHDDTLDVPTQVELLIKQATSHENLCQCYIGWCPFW
Description: (b) In Vitro mTOR PI Kinase-Related Kinase Assay
The assay used AlphaScreen technology (Gray et al, Analytical Biochemistry, 2003, 313: 234-245) to determine the ability of test compounds to inhibit phosphorylation by recombinant mTOR. […]
Each reaction was stopped by the addition of 10 μl of a mixture of EDTA (50 mM), bovine serum albumin (BSA; 0.5 mg/ml) and Tris-HCl pH7.4 buffer (50 mM) containing p70 S6 Kinase (T389) 1A5 Monoclonal Antibody (Cell Signalling Technology, Catalogue No. 9206B) and AlphaScreen Streptavidin donor and Protein A acceptor beads (200 ng; Perkin Elmer, Catalogue No. 6760002B and 6760137R respectively) were added and the assay plates were left for about 20 hours at room temperature in the dark. The resultant signals arising from laser light excitation at 680 nm were read using a Packard Envision instrument.
Phosphorylated biotinylated peptide is formed in situ as a result of mTOR mediated phosphorylation. […] Upon laser light excitation at 680 nm, the donor bead:acceptor bead complex produces a signal that can be measured. […]
mTOR enzyme inhibition for a given test compound was expressed as an IC50 value.

Structure (SMILES) | pIC50 [1] | pIC50 (p110α Type Ia human PI3K) | pIC50 [2]
O=S(=O)(Nc1cc(-c2cnc3[nH]ccc3c2)cnc1Cl)c1ccccc1 [Example 3, N-[2-chloro-5-(1H-pyrrolo[2,3-b]pyridin-5-yl)pyridin-3-yl]benzenesulphonamide] | ~5.30 | ~6.70 | –
Cc1nc2[nH]ccc2cc1-c1cnc(Cl)c(NS(=O)(=O)c2ccccc2)c1 [Example 8, N-[2-chloro-5-(6-methyl-1H-pyrrolo[2,3-b]pyridin-5-yl)pyridin-3-yl]benzenesulphonamide] | ~5.52 | ~7.00 | –
Cc1nc2[nH]cnc2cc1-c1cnc(Cl)c(NS(=O)(=O)c2ccccc2)c1 [Example 7, N-[2-chloro-5-(5-methyl-3H-imidazo[4,5-b]pyridin-6-yl)pyridin-3-yl]benzenesulphonamide] | ~5.70 | ~6.30 | –
CS(=O)(=O)Nc1cc(-c2cnc3[nH]ccc3c2)cnc1Cl [Example 1, N-[2-chloro-5-(1H-pyrrolo[2,3-b]pyridin-5-yl)pyridin-3-yl]methanesulphonamide] | ~4.89 | ~6.30 | ~6.00
